Values after ≈ are worked out from the molar mass of the structure shown.
Key:
[1] = test system: Leishmania donovani; test: Antileishmanial activity against promastigote form of Leishmania donovani NHOM/IN/80/DD8 assessed as decrease in cell viability after 72 hrs by MTT assay; type: functional, organism-based; conditions: NHOM/IN/80/DD8, 72 h
[2] = Antioxidant activity assessed as DPPH radical scavenging activity after 20 to 30 mins; type: functional
[3] = test system: Leishmania donovani; test: Potency index, ratio of sodium stibogluconate IC50 to compound IC50 for promastigote form of Leishmania donovani NHOM/IN/80/DD8; type: functional

Structure (SMILES)	IC50 [2]	IC50 [1]	Ratio IC50 [3]
CCCCc1oc2ccc(/N=C/c3ccc(OC)cc3OC)cc2c1C(=O)c1ccc(OC)cc1	20.53 µg/mL (≈ 43.5 µM)	52 µg/mL (≈ 110 µM)	–
CCCCc1oc2ccc(/N=C/c3ccc(O)cc3O)cc2c1C(=O)c1ccc(OC)cc1	7.55 µg/mL (≈ 17 µM)	109 µg/mL (≈ 246 µM)	4
N=C(N)c1ccc(OCCCCCOc2ccc(C(=N)N)cc2)cc1 [PENTAMIDINE]	–	16.1 µg/mL (≈ 47.4 µM)	–
O=C1O[C@H]([C@@H](O)CO)C(O)=C1O [ASCORBIC ACID]	3.31 µg/mL (≈ 18.8 µM)	–	–
CCCCc1oc2ccc(/N=C/c3ccc(Cl)cc3Cl)cc2c1C(=O)c1ccc(OC)cc1	2.44 µg/mL (≈ 5.08 µM)	124 µg/mL (≈ 258 µM)	–
CCCCc1oc2ccc(/N=C/c3ccc(OCC)c(OC)c3)cc2c1C(=O)c1ccc(OC)cc1	14.78 µg/mL (≈ 30.4 µM)	238 µg/mL (≈ 491 µM)	–

The next lines start with results.

IC50 [2]	Structure (SMILES)	IC50 [1]	Ratio IC50 [3]
3.69 µg/mL (≈ 8.39 µM)	CCCCc1oc2ccc(/N=C/c3ccc(CC)cc3)cc2c1C(=O)c1ccc(OC)cc1	59.3 µg/mL (≈ 135 µM)	–
34.24 µg/mL (≈ 83.2 µM)	CCCCc1oc2ccc(/N=C/c3ccccc3)cc2c1C(=O)c1ccc(OC)cc1	279 µg/mL (≈ 677 µM)	2
75.86 µg/mL (≈ 170 µM)	CCCCc1oc2ccc(/N=C/c3ccc(Cl)cc3)cc2c1C(=O)c1ccc(OC)cc1	372 µg/mL (≈ 834 µM)	–
100.3 µg/mL (≈ 234 µM)	CCCCc1oc2ccc(/N=C/c3ccc(F)cc3)cc2c1C(=O)c1ccc(OC)cc1	77.4 µg/mL (≈ 180 µM)	–
27.16 µg/mL (≈ 62.2 µM)	CCCCc1oc2ccc(/N=C/c3ccc(C#N)cc3)cc2c1C(=O)c1ccc(OC)cc1	101 µg/mL (≈ 231 µM)	–
99.43 µg/mL (≈ 233 µM)	CCCCc1oc2ccc(/N=C/c3ccccc3O)cc2c1C(=O)c1ccc(OC)cc1	115 µg/mL (≈ 268 µM)	4
53.11 µg/mL (≈ 116 µM)	CCCCc1oc2ccc(/N=C/c3ccc([N+](=O)[O-])cc3)cc2c1C(=O)c1ccc(OC)cc1	56 µg/mL (≈ 123 µM)	–
34.16 µg/mL (≈ 74.8 µM)	CCCCc1oc2ccc(/N=C/c3cccc([N+](=O)[O-])c3)cc2c1C(=O)c1ccc(OC)cc1	103 µg/mL (≈ 226 µM)	–
22.79 µg/mL (≈ 53.3 µM)	CCCCc1oc2ccc(/N=C/c3ccc(O)cc3)cc2c1C(=O)c1ccc(OC)cc1	144 µg/mL (≈ 337 µM)	4

— ChEMBL document CHEMBL4184091, “Microwave-assisted synthesis of novel 5-substituted benzylidene amino-2-butyl benzofuran-3-yl-4-methoxyphenyl methanones as antileishmanial and antioxidant agents” (Bioorg Med Chem Lett, 2018)
